Key:
[1] = test system: rice (Oryza sativa); assay: Test B flooded paddy test, visual rating 0-100 (0 no effect, 100 complete control); conditions: Flood, 250 g ai/ha, applied to paddy water, rated after 13 to 15 days
[2] = test system: barnyardgrass (Echinochloa crus-galli); assay: Test B flooded paddy test, visual rating 0-100; conditions: Flood, 250 g ai/ha, applied to paddy water, rated after 13 to 15 days
[3] = test system: kochia (Kochia scoparia); assay: Test A preemergence, visual injury rating 0-100; format: in vivo
Description: (§1) Seeds of plant species selected from barnyardgrass (Echinochloa crus-galli), kochia (Kochia scoparia), ragweed (common ragweed, Ambrosia elatior), ryegrass, Italian (Italian ryegrass, Lolium multiflorum), foxtail, giant (giant foxtail, Setaria faberii), foxtail, green (green foxtail, Setaria viridis), and pigweed (Amaranthus retroflexus) were planted into a blend of loam soil and sand and treated preemergence with a directed soil spray using test chemicals formulated in a non-phytotoxic solvent mixture which included a surfactant.
(§2) At the same time, plants selected from these weed species and also wheat (Triticum aestivum), corn (Zea mays), blackgrass (Alopecurus myosuroides), and galium (catchweed bedstraw, Galium aparine) were planted in pots containing the same blend of loam soil and sand and treated with postemergence applications of test chemicals formulated in the same manner. Plants ranged in height from 2 to 10 cm and were in the one- to two-leaf stage for the postemergence treatment. Treated plants and untreated controls were maintained in a greenhouse for approximately 10 days, after which time all treated plants were compared to untreated controls and visually evaluated for injury. […] A dash (-) response means no test result.

[4] = test system: ryegrass, Italian (Italian ryegrass, Lolium multiflorum); assay: Test A preemergence, visual injury rating 0-100; format: in vivo
Description: as §1, §2

[5] = test system: foxtail, giant (giant foxtail, Setaria faberii); assay: Test A preemergence, visual injury rating 0-100; format: in vivo; conditions: for Foxtail, Giant plant response rating (0 to 100 scale): 125 g ai/ha
Description: as §1, §2

[6] = test system: pigweed (Amaranthus retroflexus); assay: Test A preemergence, visual injury rating 0-100; format: in vivo
Description: as §1, §2

[7] = test system: ragweed (common ragweed, Ambrosia elatior); assay: Test A preemergence, visual injury rating 0-100; format: in vivo
Description: as §1, §2

[8] = test system: ducksalad (Heteranthera limosa); assay: Test B flooded paddy test, visual rating 0-100; conditions: Flood, 250 g ai/ha, applied to paddy water, rated after 13 to 15 days
[9] = test system: kochia (Kochia scoparia); assay: Test A postemergence, visual injury rating 0-100; format: in vivo; conditions: 0 to 100 scale
Description: as §1, §2

[10] = test system: ryegrass, Italian (Italian ryegrass, Lolium multiflorum); assay: Test A postemergence, visual injury rating 0-100; format: in vivo; conditions: 0 to 100 scale
Description: as §1, §2

[11] = test system: foxtail, giant (giant foxtail, Setaria faberii); assay: Test A postemergence, visual injury rating 0-100; format: in vivo; conditions: 0 to 100 scale
Description: as §1, §2

[12] = test system: galium (catchweed bedstraw, Galium aparine); assay: Test A postemergence, visual injury rating 0-100; format: in vivo; conditions: 0 to 100 scale
Description: as §1, §2

[13] = test system: pigweed (Amaranthus retroflexus); assay: Test A postemergence, visual injury rating 0-100; format: in vivo; conditions: 0 to 100 scale
Description: as §1, §2

[14] = test system: ragweed (common ragweed, Ambrosia elatior); assay: Test A postemergence, visual injury rating 0-100; format: in vivo; conditions: 0 to 100 scale
Description: as §1, §2

[15] = test system: wheat (Triticum aestivum); assay: Test A postemergence, visual injury rating 0-100; format: in vivo; conditions: 0 to 100 scale
Description: as §1, §2

[16] = test system: corn (Zea mays); assay: Test A postemergence, visual injury rating 0-100; format: in vivo; conditions: 0 to 100 scale
Description: as §1, §2

[17] = test system: barnyardgrass (Echinochloa crus-galli); assay: Test A postemergence, visual injury rating 0-100; format: in vivo; conditions: 0 to 100 scale
Description: as §1, §2

[18] = test system: blackgrass (Alopecurus myosuroides); assay: Test A postemergence, visual injury rating 0-100; format: in vivo; conditions: 0 to 100 scale
Description: as §1, §2

[19] = test system: barnyardgrass (Echinochloa crus-galli); assay: Test A preemergence, visual injury rating 0-100 (0 no effect, 100 complete control); format: in vivo; conditions: for Barnyardgrass plant response rating (0 to 100 scale): 125 g ai/ha
Description: as §1, §2

[20] = 31 g ai/ha, 0 to 100 scale (0 no effect, 100 complete control), approx. 10 days

Row | SMILES | Rice plant response rating (0 to 100 scale) [1] | Barnyardgrass plant response rating (0 to 100 scale) [2] | Kochia plant response rating (0 to 100 scale) ([3]; 125 g ai/ha) | Ryegrass, Italian plant response rating (0 to 100 scale) ([4]; 125 g ai/ha) | Foxtail, Giant plant response rating (0 to 100 scale) [5] | Pigweed plant response rating (0 to 100 scale) ([6]; 125 g ai/ha) | Ragweed plant response rating (0 to 100 scale) ([7]; 125 g ai/ha) | Ducksalad plant response rating (0 to 100 scale) [8] | Kochia plant response rating ([9]; 125 g ai/ha) | Ryegrass, Italian plant response rating ([10]; 125 g ai/ha) | Foxtail, Giant plant response rating ([11]; 125 g ai/ha) | Galium plant response rating ([12]; 125 g ai/ha) | Pigweed plant response rating ([13]; 125 g ai/ha) | Ragweed plant response rating ([14]; 125 g ai/ha) | Wheat plant response rating ([15]; 125 g ai/ha) | Corn plant response rating ([16]; 125 g ai/ha) | Barnyardgrass plant response rating ([17]; 125 g ai/ha) | Blackgrass plant response rating ([18]; 125 g ai/ha) | Barnyardgrass plant response rating (0 to 100 scale) [19] | further results
1 | CC1=[N+]([O-])C(C(=O)Nc2cccc(F)c2F)C(c2ccc(F)c(Oc3ccc(F)cn3)c2)C1 (racemic) [Compound 48] | 10 | 20 | 0 | 20 | 90 | 0 | 0 | 70 | 0 | 30 | 0 | 40 | 30 | 30 | 0 | 0 | 0 | 70 | 90 | Kochia plant response rating [3, 20]: 0; Ryegrass, Italian plant response rating [4, 20]: 0; Foxtail, Giant plant response rating [5, 20]: 0; Pigweed plant response rating [6, 20]: 0; Ragweed plant response rating [7, 20]: 0; Kochia plant response rating ([9]; 31 g ai/ha): 0; Ryegrass, Italian plant response rating ([10]; 31 g ai/ha): 30; Foxtail, Giant plant response rating ([11]; 31 g ai/ha): 0; Galium plant response rating ([12]; 31 g ai/ha): 20; Pigweed plant response rating ([13]; 31 g ai/ha): 0; Ragweed plant response rating ([14]; 31 g ai/ha): 0; Wheat plant response rating ([15]; 31 g ai/ha): 0; Corn plant response rating ([16]; 31 g ai/ha): 0; Barnyardgrass plant response rating ([17]; 31 g ai/ha): 0; Blackgrass plant response rating ([18]; 31 g ai/ha): 30; Barnyardgrass plant response rating [19, 20]: 0
2 | CC1=[N+]([O-])C(C(=O)Nc2cccc(F)c2F)C(c2cccc(C)n2)C1 (racemic) [Compound 49] | 0 | 0 | 0 | 0 | 0 | 0 | 0 | 0 | 0 | 0 | 0 | 0 | 0 | 20 | 0 | 0 | 0 | 0 | 10 | Kochia plant response rating (0 to 100 scale) ([3]; 500 g ai/ha): 0; Ryegrass, Italian plant response rating (0 to 100 scale) ([4]; 500 g ai/ha): 20; Foxtail, Giant plant response rating ([5]; 500 g ai/ha, 0 to 100 scale): 40; Pigweed plant response rating (0 to 100 scale) ([6]; 500 g ai/ha): 0; Ragweed plant response rating (0 to 100 scale) ([7]; 500 g ai/ha): 0; Kochia plant response rating ([9]; 500 g ai/ha): 0; Ryegrass, Italian plant response rating ([10]; 500 g ai/ha): 30; Foxtail, Giant plant response rating ([11]; 500 g ai/ha): 0; Galium plant response rating ([12]; 500 g ai/ha): 0; Pigweed plant response rating ([13]; 500 g ai/ha): 0; Ragweed plant response rating ([14]; 500 g ai/ha): 20; Wheat plant response rating ([15]; 500 g ai/ha): 0; Corn plant response rating ([16]; 500 g ai/ha): 0; Barnyardgrass plant response rating ([17]; 500 g ai/ha): 0; Blackgrass plant response rating ([18]; 500 g ai/ha): 0; Barnyardgrass plant response rating ([19]; 500 g ai/ha, 0 to 100 scale): 20

— patent US11498899B2, “Nitrone herbicides” (FMC Corporation, priority 2016, dated 2022)
